Results published in patent publication US9386769B2 (HUNAN RESEARCH INSTITUTE OF CHEMICAL INDUSTRY CO., LTD., priority 2011, dated 2016).
Where two headings read alike, the source gives them in different places.

How the values were obtained:
Tetranychus urticae = experiment: Acaricidal activity against Tetranychus urticae, dipping of horsebean seedlings; assay type: in vivo; conditions: Tetranychus urticae, 24 h, read-out: activities against Tetranychus urticae (mortality rating)
Experimental: Bioassay method: Stock solution of every test compound was prepared in an appropriate solvent such as N,N-dimethylformamide, and a small amount of Tween 80 was added as emulsification agent, then diluted to the required test concentrations with distilled water, using the control group tested with distilled water only. 100 to 200 adults of Tetranychus urticae were transferred to well-growing horsebean seedlings and 24 hr later, horsebean seedlings with Tetranychus urticae were dipped in the test solution for 10 s, then allowed to dry with filter paper and transplanted to the beaker containing water and kept in a room for normal cultivation. Each assay contained three replications, and results were averaged. Mortality was assessed 24 hr after the treatment. The activity was rated on the basis of mortality using the following rating system: A, mortality>90; B, 90≧mortality>70; C, 70≧mortality>50; D, mortality≦50.

Alternaria alternata = experiment: Fungicidal activity against Alternaria alternata, mycelial growth inhibition on PDA plate; assay type: cell-based; conditions: Alternaria alternata; for inhibition at 25 µg/mL: 25 mg/L, read-out: activities against Alternaria alternata (growth inhibition rating)
Experimental: (§1) Bioassay method: Stock solution of every test compound was prepared in an appropriate solvent such as N,N-dimethylformamide (DMF), and then diluted to the required test concentrations with sterile water containing 0.1% Tween 80; Pipetted 3 mL of test solution to 27 mL of potato dextrose agar (PDA) medium at 45° C. and poured into a Petri dish to prepare a plate after shaking thoroughly; 6 mm of diameter of fungi cake from the edge of 7-day-old […] colony was inoculated on the central of the plate, wherein mycelium facing down, and cultured in the culture tank at 28° C. The diameter of fungi spread was calculated 4 days later using the control group tested with the diluent only. Test was run 4 times. Data were subjected to EXCEL statistical software analysis and the growth inhibition of the tested compound was calculated according to the corresponding control, the activity was rated on the basis of percentage of growth inhibition using the following rating system: A, inhibition (%)>90; B, 90≧inhibition (%)>70; C, 70≧inhibition (%)>50; D, inhibition (%)≦50.
Fungicidal activities against Alternaria alternata of compounds represented by the general formula (I) were evaluated with the corresponding method in Example 18, and some of the test results are shown in Table 9 to Table 10.

Sclerotinia sclerotiorum = experiment: Fungicidal activity against Sclerotinia sclerotiorum, mycelial growth inhibition on PDA plate; assay type: cell-based; conditions: Sclerotinia sclerotiorum; for inhibition at 1.25 µg/mL: 1.25 mg/L; for inhibition at 2.5 µg/mL: 2.5 mg/L; for inhibition at 5 µg/mL: 5 mg/L; for inhibition at 10 µg/mL: 10 mg/L; for inhibition at 25 µg/mL: 25 mg/L, read-out: activities against Sclerotinia sclerotiorum (growth inhibition rating)
Experimental: as §1

Botrytis cinerea = experiment: Fungicidal activity against Botrytis cinerea, mycelial growth inhibition on PDA plate; assay type: cell-based; conditions: Botrytis cinerea; for inhibition at 1.25 µg/mL: 1.25 mg/L; for inhibition at 2.5 µg/mL: 2.5 mg/L; for inhibition at 5 µg/mL: 5 mg/L; for inhibition at 10 µg/mL: 10 mg/L; for inhibition at 25 µg/mL: 25 mg/L, read-out: activities against Botrytis cinerea (growth inhibition rating)
Experimental: as §1
Fungicidal activities against Botrytis cinerea of compounds represented by the general formula (I) were evaluated with the corresponding method in Example 18, and some of the test results are shown in Table 6 to Table 8.

Marssonina coronaria = experiment: Fungicidal activity against Marssonina coronaria; assay type: cell-based; conditions: 25 mg/L
Experimental: as §1

Cercospora arachidicola = experiment: Fungicidal activity against Cercospora arachidicola; assay type: cell-based; conditions: 25 mg/L
Experimental: as §1

Fusarium oxysporum = experiment: Fungicidal activity against Fusarium oxysporum; assay type: cell-based; conditions: 25 mg/L
Experimental: as §1

Alternaria solani = experiment: Fungicidal activity against Alternaria solani; assay type: cell-based; conditions: 25 mg/L
Experimental: as §1

[1] = system: Alternaria solani, Fusarium oxysporum, Marssonina coronaria, Sphaceloma ampelinum, Apple canker, Cercospora arachidicola and Alternaria mali; experiment: Fungicidal activities against several pathogens (Example 21), comparison with Procymidone; assay type: cell-based; conditions: several pathogens of Example 21
Experimental: as §1

Sphaceloma ampelinum = experiment: Fungicidal activity against Sphaceloma ampelinum; assay type: cell-based; conditions: 25 mg/L
Experimental: as §1

Aphis fabae = experiment: Insecticidal activity against Aphis fabae, dipping of horsebean seedlings; assay type: in vivo; conditions: 24 h
Experimental: Bioassay method: Stock solution of every test compound was prepared in an appropriate solvent such as N,N-dimethylformamide, and a small amount of Tween 80 was added as emulsification agent, then diluted to the required test concentrations with distilled water, using the control group tested with distilled water only. More than 20 adults of Aphis fabae were transferred to newly unearthed horsebean seedlings and 24 hr later, horsebean seedlings with Aphis fabae were dipped in the test solution for 5 s, then allowed to dry with filter paper, transplanted to the absorbent sponge and covered with a glass tube, then kept in a room for normal cultivation. Each assay contained three replications, and results were averaged. Mortality was assessed 24 hr after the treatment. The activity was rated to A, B, C or D according to the rating system in Example 22.

Alternaria mali = experiment: Fungicidal activity against Alternaria mali; assay type: cell-based; conditions: 25 mg/L
Experimental: as §1

[2] = Table 4, read-out: activities against Sclerotinia sclerotiorum (growth inhibition)
[3] = Table 7, read-out: activities against Botrytis cinerea (growth inhibition)
[4] = Table 5, read-out: activities against Sclerotinia sclerotiorum (growth inhibition)
[5] = read-out: activities against Aphis fabae (mortality)
[6] = Table 8, read-out: activities against Botrytis cinerea (growth inhibition)

Structure (SMILES): C#CCOc1ccc([N+](=O)[O-])c(N(CC)Cc2cnc(Cl)s2)n1 [Compound 25, 6-propargyloxy-N-((2-chlorothiazole-5-yl)methyl)-N-ethyl-3-nitropyridine-2-amine]
- mortality at 500 µg/mL (Tetranychus urticae): 50 to 70%
- inhibition at 25 µg/mL (Alternaria alternata): 70 to 90%
- inhibition at 1.25 µg/mL (Sclerotinia sclerotiorum; [2]): 78%
- inhibition at 2.5 µg/mL (Sclerotinia sclerotiorum; [2]): 84%
- inhibition at 5 µg/mL (Sclerotinia sclerotiorum; [2]): 90%
- inhibition at 10 µg/mL (Sclerotinia sclerotiorum; [2]): 96%
- inhibition at 25 µg/mL (Sclerotinia sclerotiorum): > 90%
- inhibition at 1.25 µg/mL (Botrytis cinerea; [3]): 85%
- inhibition at 2.5 µg/mL (Botrytis cinerea; [3]): 90%
- inhibition at 5 µg/mL (Botrytis cinerea; [3]): 93%
- inhibition at 10 µg/mL (Botrytis cinerea; [3]): 97%
- inhibition at 25 µg/mL (Botrytis cinerea): > 90%

Structure (SMILES): CCN(Cc1cnc(Cl)s1)c1nc(OC)ccc1[N+](=O)[O-] [Compound 05, 6-methoxy-N-((2-chlorothiazole-5-yl)methyl)-N-ethyl-3-nitropyridin-2-amine]
- activity against Marssonina coronaria (Marssonina coronaria): 78%
- inhibition at 2.5 µg/mL (Alternaria alternata; 2.5 mg/L, read-out: activities against Alternaria alternata (growth inhibition)): 45%
- inhibition at 5 µg/mL (Alternaria alternata; 5 mg/L, read-out: activities against Alternaria alternata (growth inhibition)): 75%
- inhibition at 10 µg/mL (Alternaria alternata; 10 mg/L, read-out: activities against Alternaria alternata (growth inhibition)): 81%
- inhibition at 25 µg/mL (Alternaria alternata): 70 to 90%
- inhibition at 0.1562 µg/mL (Sclerotinia sclerotiorum; 0.1562 mg/L, Table 5, read-out: activities against Sclerotinia sclerotiorum (growth inhibition)): 63%
- inhibition at 0.3125 µg/mL (Sclerotinia sclerotiorum; 0.3125 mg/L, Table 5, read-out: activities against Sclerotinia sclerotiorum (growth inhibition)): 63%
- inhibition at 0.625 µg/mL (Sclerotinia sclerotiorum; 0.625 mg/L, Table 5, read-out: activities against Sclerotinia sclerotiorum (growth inhibition)): 68%
- inhibition at 1.25 µg/mL (Sclerotinia sclerotiorum; [2]): 95%
- inhibition at 1.255 µg/mL (Sclerotinia sclerotiorum; 1.255 mg/L, Table 5, read-out: activities against Sclerotinia sclerotiorum (growth inhibition)): 73%
- inhibition at 2.5 µg/mL (Sclerotinia sclerotiorum; [2]): 99%
- inhibition at 2.5 µg/mL (Sclerotinia sclerotiorum; [4]): 90%
- inhibition at 5 µg/mL (Sclerotinia sclerotiorum; [2]): 100%
- inhibition at 5 µg/mL (Sclerotinia sclerotiorum; [4]): 96%
- inhibition at 10 µg/mL (Sclerotinia sclerotiorum; [2]): 100%
- inhibition at 25 µg/mL (Sclerotinia sclerotiorum): > 90%
- activity against Cercospora arachidicola (Cercospora arachidicola): 88%
- activity against Fusarium oxysporum (Fusarium oxysporum): 38%
- activity against Alternaria solani (Alternaria solani): 87%
- fungicidal activity compared with the commercial fungicide Procymidone [1]: better than or equal to that of the commercial fungicide Procymidone
- activity against Sphaceloma ampelinum (Sphaceloma ampelinum): 93%
- mortality at 500 µg/mL (Aphis fabae; read-out: activities against Aphis fabae (mortality rating)): > 90%
- mortality at 6.25 µg/mL (Aphis fabae; [5]): 12.7%
- mortality at 25 µg/mL (Aphis fabae; [5]): 46.5%
- mortality at 100 µg/mL (Aphis fabae; [5]): 87.5%
- inhibition at 0.1562 µg/mL (Botrytis cinerea; 0.1562 mg/L, Table 8, read-out: activities against Botrytis cinerea (growth inhibition)): 78%
- inhibition at 0.3125 µg/mL (Botrytis cinerea; 0.3125 mg/L, Table 8, read-out: activities against Botrytis cinerea (growth inhibition)): 84%
- inhibition at 0.625 µg/mL (Botrytis cinerea; 0.625 mg/L, Table 8, read-out: activities against Botrytis cinerea (growth inhibition)): 88%
- inhibition at 1.25 µg/mL (Botrytis cinerea; [3]): 89%
- inhibition at 1.255 µg/mL (Botrytis cinerea; 1.255 mg/L, Table 8, read-out: activities against Botrytis cinerea (growth inhibition)): 94%
- inhibition at 2.5 µg/mL (Botrytis cinerea; [3]): 92%
- inhibition at 2.5 µg/mL (Botrytis cinerea; [6]): 98%
- inhibition at 5 µg/mL (Botrytis cinerea; [3]): 97%
- inhibition at 5 µg/mL (Botrytis cinerea; [6]): 100%
- inhibition at 10 µg/mL (Botrytis cinerea; [3]): 100%
- inhibition at 25 µg/mL (Botrytis cinerea): > 90%
- activity against Alternaria mali (Alternaria mali): 82%
